# Assay results as given in patent US20120122727A1, “IN VITRO METHOD FOR PREDICTING WHETHER A COMPOUND IS GENOTOXIC IN VIVO” (priority 2009, published 2012).
# Tested on: primary mouse hepatocytes
# Assay: Gene expression (Affymetrix Mouse Genome 430 2.0) in primary mouse hepatocytes, true vs false GTX, 24 h and 48 h
# Details: log2, corrected for vehicle control
compound,measurement,setting,value
"CN(C)N=O [DMN, Dimethylnitrosamine]",Gene expression data AF000969 (Cadps2),24 h average,−1.039
same,Gene expression data AF022072 (Grb10),24 h average,−1.913
same,Gene expression data AF065917 (Lif),24 h average,1.804
same,Gene expression data AF204959 (Cyp3a25 /// LOC622249),24 h average,−0.2993
same,Gene expression data AF297615 (Ggta1),24 h average,3.2188
same,Gene expression data AI594683 (Dmn),24 h average,3.164
same,Gene expression data AI596632 (Ptprg /// LOC632664),24 h average,−1.9
same,Gene expression data AI987929 (Ndrg1),24 h average,−0.9838
same,Gene expression data AK004419 (Fbxl17),24 h average,−1.22
same,Gene expression data AK005731 (1700007K13Rik),24 h average,5.486
same,Gene expression data AK007766 (1810044A24Rik),24 h average,−0.8706
same,Gene expression data AK007854 (1810053B23Rik),24 h average,2.173
same,Gene expression data AK009736 (Gpr137b /// LOC664862 /// LOC673335),24 h average,−0.8367
same,Gene expression data AK010447 (Smyd3),24 h average,−1.0358
same,Gene expression data AK014608 (4632434l11Rik),24 h average,1.756
same,Gene expression data AK019979 (2610528E23Rik),24 h average,−1.324
same,Gene expression data AV095209 (Mthfd1l),24 h average,−1.007
same,Gene expression data AV141095 (1110033M05Rik),24 h average,−1.375
same,Gene expression data AV173571 (1700106N22Rik),24 h average,−1.0106
same,Gene expression data AV219418 (Ldhb),24 h average,2.743
same,Gene expression data AV223474 (Zdhhc14),24 h average,−0.9067
same,Gene expression data AV298304 (Homez),24 h average,1.8715
same,Gene expression data AV327248 (Zfp365 /// LOC674611),24 h average,4.114
same,Gene expression data AV377066 (9130221J18Rik),24 h average,0.9605
same,Gene expression data AW240761 (Tbc1d5),24 h average,−1.191
same,Gene expression data AW543460 (Pard3),24 h average,−1.4802
same,Gene expression data AW543723,24 h average,1.95
same,Gene expression data AW986246 (Maoa),24 h average,−0.372
same,Gene expression data BB027848 (4732466D17Rik),24 h average,1.126
same,Gene expression data BB043558 (9230114K14Rik),24 h average,2.407
same,Gene expression data BB275142 (AW456874),24 h average,1.902
same,Gene expression data BB308836 (Ppm1l),24 h average,−0.9881
same,Gene expression data BB318221 (Zdhhc14),24 h average,−1.041
same,Gene expression data BB463610 (4632434l11Rik),24 h average,1.9965
same,Gene expression data BB526605 (Mipol1),24 h average,−1.5816
same,Gene expression data BB770528 (Rai2),24 h average,2.8
same,Gene expression data BB821363 (Scfd2),24 h average,−1.143
same,Gene expression data BC004827 (Psat1),24 h average,−1.518
same,Gene expression data BC008626 (Icam1),24 h average,2.035
same,Gene expression data BC010462 (BC010462),24 h average,0.7519
same,Gene expression data BC012247 (Dcxr),24 h average,1.6567
same,Gene expression data BC012260 (Psmf1),24 h average,1.0548
same,Gene expression data BC015270 (Hist2h3c2),24 h average,0.9816
same,Gene expression data BC016073 (Cdkal1),24 h average,−1.243
same,Gene expression data BC016265 (Ube2e2),24 h average,−1.287
same,Gene expression data BC019882 (Acaa1b),24 h average,2.057
same,Gene expression data BC025501 (Aaas),24 h average,1.6386
same,Gene expression data BC025837 (Sbk1),24 h average,0.9087
same,Gene expression data BC025915 (Cova1),24 h average,−0.9502
same,Gene expression data BC026422 (Tgm1),24 h average,2.22
same,Gene expression data BF719766 (Thyn1),24 h average,1.824
same,Gene expression data BG065754 (Ccng1),24 h average,0.9587
same,Gene expression data BG066903 (Kif16b),24 h average,−0.8682
same,Gene expression data BG069873 (Gnb1l),24 h average,2.2987
same,Gene expression data BG070887 (Gtdc1),24 h average,−1.112
same,Gene expression data BG076151 (Ppm1d),24 h average,1.946
same,Gene expression data BG261907 (Large),24 h average,−1.3871
same,Gene expression data BI651416 (Cdc42bpg),24 h average,1.7218
same,Gene expression data BI660702 (Ell3),24 h average,2.514
same,Gene expression data BM198879 (Ercc5),24 h average,1.2634
same,Gene expression data BM230508 (A030007D23Rik),24 h average,2.304
same,Gene expression data NM_007987 (Fas),24 h average,2.421
same,Gene expression data NM_008522 (Ltf),24 h average,3.616
same,Gene expression data NM_008576 (Abcc1),24 h average,−0.9295
same,Gene expression data NM_011176 (St14),24 h average,1.574
same,Gene expression data NM_011316 (Saa4),24 h average,2.1585
same,Gene expression data NM_012006 (Acot1),24 h average,2.033
same,Gene expression data NM_013866 (Zfp385),24 h average,2.361
same,Gene expression data NM_018770 (Igsf4a),24 h average,−0.8412
same,Gene expression data NM_021451 (Pmaip1),24 h average,3.698
same,Gene expression data NM_025770 (Atg10),24 h average,−0.5113
same,Gene expression data NM_028803 (Gbe1),24 h average,−1.103
same,Gene expression data NM_030697 (Ankrd47),24 h average,3.211
same,Gene expression data NM_053168 (Trim11),24 h average,1.0583
same,Gene expression data NM_134188 (Acot2),24 h average,−0.5001
same,Gene expression data Y15910 (Diap2),24 h average,−1.636
same,Gene expression AA561726 average,48 h,−0.3534
same,Gene expression AF000969 average,48 h,−1.114
same,Gene expression AF022072 average,48 h,−1.2797
same,Gene expression AF033112 average,48 h,1.817
same,Gene expression AF055573 average,48 h,−1.913
same,Gene expression AF069954 average,48 h,1.631
same,Gene expression AF297615 average,48 h,3.153
same,Gene expression AF335325 average,48 h,1.6857
same,Gene expression AI594683 average,48 h,3.7761
same,Gene expression AI747296 average,48 h,−0.4333
same,Gene expression AK005731 average,48 h,4.617
same,Gene expression AK007854 average,48 h,0.8396
same,Gene expression AK010447 average,48 h,−0.8634
same,Gene expression AK010738 average,48 h,1.343
same,Gene expression AK014608 average,48 h,1.391
